# Measurements taken from US7875587B2, “Peptide analogues of GIP for treatment of diabetes, insulin resistance and obesity” (UUTECH Limited, priority 2004, dated 2011).
# No end group written: not given here.
# Key:
# [1] = tested on: BRIN-BD11 cells; experiment: Acute tests for insulin secretion from BRIN-BD11 cells; assay type: cell-based; conditions: 5.6 and 16.7 mM glucose, 10^-13 to 10^-8 M peptide
# Description: Culture of insulin secreting cells. BRIN-BD11 cells were cultured in sterile tissue culture flasks (Corning, Glass Works, UK) using RPMI-1640 tissue culture medium containing 10% (v/v) foetal calf serum, 1% (v/v) antibiotics (100 U/ml penicillin, 0.1 mg/ml streptomycin) and 11.1 mM glucose. The cells were maintained at 37° C. in an atmosphere of 5% CO2 and 95% air using a LEEC incubator (Laboratory Technical Engineering, Nottingham, UK).
# Acute tests for insulin secretion. Before experimentation, the cells were harvested from the surface of the tissue culture flasks with the aid of trypsin/EDTA (Gibco), seeded into 24-multiwell plates (Nunc, Roskilde, Denmark) at a density of 1.5×10^5 cells per well, and allowed to attach overnight at 37° C. Acute tests for insulin release were preceded by 40 minutes pre-incubation at 37° C. in 1.0 ml Krebs Ringer bicarbonate buffer (115 mM NaCl, 4.7 mM KCl, 1.28 mM CaCl2, 1.2 mM KH2PO4, 1.2 mM MgSO4, 10 mM NaHCO3, 5 g/l bovine serum albumin, pH 7.4) supplemented with 1.1 mM glucose. Test incubations were performed (n=12) at two glucose concentrations (5.6 mM and 16.7 mM) with a range of concentrations (10^−13 to 10^−8 M) of GIP or GIP analogues. After 20 minutes incubation, the buffer was removed from each well and aliquots (200 μl) were used for measurement of insulin by radioimmunoassay.
# [2] = molecular target: T1, purified porcine dipeptidylpeptidase IV (Sus scrofa, UniProt P22411); experiment: DPP IV degradation studies of fatty acid derivatised GIP analogues; assay type: in vitro ADME
# T1 construct: purchased Sigma (Poole, Dorset, UK)
# Description: DPP IV degradation studies. GIP and fatty acid derivatised GIP analogues were incubated at 37° C. with purified porcine dipeptidylpeptidase IV (5 mU in 50 mmol/l triethanolamine-HCl; pH 7.8) for 0, 2, 4, 8 and 24 hours (final peptide concentration 2 mmol/l). The reactions were subsequently terminated by addition of 10% (v/v) TFA/water and the reaction products separated using HPLC. […] HPLC peak area data were used to calculate % intact peptide remaining throughout the incubation.
# [3] = tested on: ob/ob mice; experiment: Acute metabolic and dose-response effects with glucose in 18 h fasted ob/ob mice; assay type: in vivo, mouse; conditions: for overall glucose excursion (glucose AUC) compared to glucose alone: 25 nmoles/kg i.p. with glucose 18 mmoles/kg, 0-60 min; for AUC glucose and insulin in dose-response study: 6.25, 12.5 and 25 nmoles/kg with glucose
# Description: (§1) Animals. Obese diabetic (ob/ob) mice derived from the colony maintained at Aston University, UK were used at 12-17 weeks of age. The genetic background and characteristics of the colony used have been outlined in detail elsewhere (Bailey, C. J. et al., 1982, Int. J. Obesity 6:11-21; Gault, V. A. et al., 2003, J. Endocrinol. 176: 133-141). Animals were housed in an air-conditioned room at 22±2° C. with a 12 hours light: 12 hours dark cycle. Drinking water and standard rodent maintenance diet (Trouw Nutrition, Cheshire, UK) were freely available. All test solutions were administered by i.p. injection in a final volume of 5 ml/kg bw. Blood was collected from the cut tip of the tail vein of conscious mice into chilled fluoride/heparin microcentrifuge tubes immediately prior to injection and at the times indicated in the Figures. Plasma was separated using a Beckman microcentrifuge (Beckman Instruments, UK) at 13,000 g for 30 second and stored at −20° C. prior to glucose and insulin determinations. All animal experiments were carried out in accordance with the UK Animals (Scientific Procedures) Act 1986.
# (§2) Metabolic and dose-response effects of GIP and N-AcGIP(LysPAL) analogues (at 6.25-25 nmoles/kg bw) following glucose administration (18 mmoles/kg bw) were examined in mice fasted for 18 hours. […] Food intake and body weight were recorded daily. Plasma glucose and insulin concentrations were monitored at 2-6 day intervals. At 14 days, groups of animals were used to evaluate intraperitoneal glucose tolerance (18 mmoles/kg) and insulin sensitivity (50 U/kg). In a separate series, two experimental protocols were employed to examine the possibility of GIP receptor desensitization after 14 days treatment. […] At the end of the 14-day treatment period, pancreatic tissues were excised for measurement of insulin following extraction with 5 ml/g ice-cold acid ethanol (75% ethanol, […], 1.5% HCl). Whole blood was taken for determination of glycated hemoglobin.
# (§3) Biochemical analyses. Plasma glucose was assayed by an automated glucose oxidase procedure (Stevens, J. F., 1971, Clin. Chem. Acta 32:199-201) using a Beckman Glucose Analyser II (Beckman, Galway, Ireland). Plasma insulin was determined by dextran-charcoal RIA as described previously (Flatt, P. R. et al., 1981, Diabetologia 20: 573-577). Glycated hemoglobin was determined using cation-exchange columns (Sigma, Poole, Dorset, UK) with measurement of absorbance (415 nm) in wash and eluting buffers using a VersaMax microplate spectrophotometer (Molecular Devices, Wokingham, Berkshire, UK).
# (§4) Statistics. Results are expressed as mean±SEM. Data were compared using the unpaired Student's t-test. Where appropriate, data were compared using repeated measures ANOVA or one-way ANOVA, followed by the Student-Newman-Keuls post hoc test. Incremental areas under plasma glucose and insulin curves (AUC) were calculated using a computer-generated program employing the trapezoidal rule (Burington, R. S., 1973, Handbook of Mathematical Tables and Formulae, McGraw-Hill, New York) with baseline subtraction.
# [4] = tested on: ob/ob mice; experiment: Once daily i.p. injection for 14 days in ob/ob mice; assay type: in vivo, mouse; conditions: for body weight / food intake / non-fasting plasma insulin: 14 days; for plasma insulin response to glucose (AUC) / glucose tolerance: after 14 daily injections; for glucose tolerance: i.p. glucose 18 mmoles/kg; for insulin sensitivity: after 14 days, insulin 50 U/kg i.p.
# Description: as §1, §2, §3, §4
# T1 sequence (P22411 whole entry): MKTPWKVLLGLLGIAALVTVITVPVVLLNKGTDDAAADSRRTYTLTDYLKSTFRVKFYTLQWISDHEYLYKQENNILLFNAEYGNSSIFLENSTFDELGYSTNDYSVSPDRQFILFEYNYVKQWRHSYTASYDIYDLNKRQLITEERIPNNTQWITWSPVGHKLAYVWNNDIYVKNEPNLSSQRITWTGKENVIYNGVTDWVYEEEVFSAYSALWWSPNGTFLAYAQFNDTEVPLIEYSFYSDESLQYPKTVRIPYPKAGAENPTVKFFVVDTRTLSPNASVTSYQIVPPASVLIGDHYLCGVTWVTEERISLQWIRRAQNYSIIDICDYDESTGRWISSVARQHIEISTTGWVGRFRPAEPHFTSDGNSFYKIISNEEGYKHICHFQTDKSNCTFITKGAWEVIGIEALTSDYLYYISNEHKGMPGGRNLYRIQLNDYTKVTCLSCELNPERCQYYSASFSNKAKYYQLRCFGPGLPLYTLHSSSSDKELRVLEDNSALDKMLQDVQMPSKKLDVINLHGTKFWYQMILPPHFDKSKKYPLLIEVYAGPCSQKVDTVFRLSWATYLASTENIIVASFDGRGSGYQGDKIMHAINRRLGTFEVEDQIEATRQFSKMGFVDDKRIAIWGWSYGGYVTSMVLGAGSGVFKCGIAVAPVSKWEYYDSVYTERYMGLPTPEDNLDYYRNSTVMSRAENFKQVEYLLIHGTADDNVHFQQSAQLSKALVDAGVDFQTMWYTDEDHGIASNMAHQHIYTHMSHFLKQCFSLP
Compound,insulin secretion from BRIN-BD11 cells [1],overall glucose excursion (glucose AUC) compared to glucose alone [3],AUC glucose and insulin in dose-response study [3],body weight ([4]; 12.5 nmoles/kg/day),food intake ([4]; 12.5 nmoles/kg/day),non-fasting plasma insulin ([4]; 12.5 nmoles/kg/day),"non-fasting plasma glucose ([4]; 12.5 nmoles/kg/day, at 14 days)",pancreatic weight ([4]; 14 days treatment),plasma insulin response to glucose (AUC) [4],glucose tolerance [4],insulin sensitivity [4],further results
"CC[C@H](C)[C@H](NC(=O)[C@H](CO)NC(=O)[C@H](Cc1ccc(O)cc1)NC(=O)[C@H](CC(=O)O)NC(=O)[C@H](CO)NC(=O)[C@@H](NC(=O)[C@H](Cc1ccccc1)NC(=O)[C@@H](NC(=O)CNC(=O)[C@H](CCC(=O)O)NC(=O)[C@H](C)NC(=O)[C@@H](N)Cc1ccc(O)cc1)[C@@H](C)O)[C@@H](C)CC)C(=O)N[C@@H](C)C(=O)N[C@@H](CCSC)C(=O)N[C@@H](CC(=O)O)C(=O)N[C@@H](CCCCN)C(=O)N[C@H](C(=O)N[C@@H](Cc1c[nH]cn1)C(=O)N[C@@H](CCC(N)=O)C(=O)N[C@@H](CCC(N)=O)C(=O)N[C@@H](CC(=O)O)C(=O)N[C@@H](Cc1ccccc1)C(=O)N[C@H](C(=O)N[C@@H](CC(N)=O)C(=O)N[C@@H](Cc1c[nH]c2ccccc12)C(=O)N[C@@H](CC(C)C)C(=O)N[C@@H](CC(C)C)C(=O)N[C@@H](C)C(=O)N[C@@H](CCC(N)=O)C(=O)N[C@@H](CCCCN)C(=O)NCC(=O)N[C@@H](CCCCN)C(=O)N[C@@H](CCCCN)C(=O)N[C@@H](CC(N)=O)C(=O)N[C@@H](CC(=O)O)C(=O)N[C@@H](Cc1c[nH]c2ccccc12)C(=O)N[C@@H](CCCCN)C(=O)N[C@@H](Cc1c[nH]cn1)C(=O)N[C@@H](CC(N)=O)C(=O)N[C@H](C(=O)N[C@H](C(=O)N[C@@H](CCC(N)=O)C(=O)O)[C@@H](C)O)[C@@H](C)CC)C(C)C)[C@@H](C)CC [GIP 1–42, reference compound]",prominent and dose-related stimulation of insulin secretion,failed to reach significance,did not significantly affect,no effect,no effect,unchanged,unchanged,did not affect pancreatic weight,had no effect,had no effect,did not affect the characteristic insulin resistance,"% Intact peptide remaining after time (hours) ([2]; pig, 0 h): 100%; % Intact peptide remaining after time (hours) ([2]; pig, 2 h): 52±3%; % Intact peptide remaining after time (hours) ([2]; pig, 8 h): entirely degraded; overall insulinotropic response compared with glucose alone ([3]; 25 nmoles/kg i.p. with glucose): significantly elevated the overall insulinotropic response"
CCCCCCCCCCCCCCCC(=O)NCCCC[C@H](NC(=O)[C@H](Cc1c[nH]c2ccccc12)NC(=O)[C@H](CC(=O)O)NC(=O)[C@H](CC(N)=O)NC(=O)[C@H](CCCCN)NC(=O)[C@H](CCCCN)NC(=O)CNC(=O)[C@H](CCCCN)NC(=O)[C@H](CCC(N)=O)NC(=O)[C@H](C)NC(=O)[C@H](CC(C)C)NC(=O)[C@H](CC(C)C)NC(=O)[C@H](Cc1c[nH]c2ccccc12)NC(=O)[C@H](CC(N)=O)NC(=O)[C@@H](NC(=O)[C@H](Cc1ccccc1)NC(=O)[C@H](CC(=O)O)NC(=O)[C@H](CCC(N)=O)NC(=O)[C@H](CCC(N)=O)NC(=O)[C@H](Cc1c[nH]cn1)NC(=O)[C@@H](NC(=O)[C@H](CCCCN)NC(=O)[C@H](CC(=O)O)NC(=O)[C@H](CCSC)NC(=O)[C@H](C)NC(=O)[C@@H](NC(=O)[C@H](CO)NC(=O)[C@H](Cc1ccc(O)cc1)NC(=O)[C@H](CC(=O)O)NC(=O)[C@H](CO)NC(=O)[C@@H](NC(=O)[C@H](Cc1ccccc1)NC(=O)[C@@H](NC(=O)CNC(=O)[C@H](CCC(=O)O)NC(=O)[C@H](C)NC(=O)[C@H](Cc1ccc(O)cc1)NC(C)=O)[C@@H](C)O)[C@@H](C)CC)[C@@H](C)CC)[C@@H](C)CC)C(C)C)C(=O)N[C@@H](Cc1c[nH]cn1)C(=O)N[C@@H](CC(N)=O)C(=O)N[C@H](C(=O)N[C@H](C(=O)N[C@@H](CCC(N)=O)C(=O)O)[C@@H](C)O)[C@@H](C)CC [N-AcGIP(LysPAL^37)],–,significantly lowered glucose AUC,prominent dose-dependent antihyperglycaemic and insulinotropic actions at all doses administered,no effect,no effect,tendency towards elevated insulin concentrations,significantly (p<0.05) lowered,did not affect pancreatic weight,greater (p<0.01) overall AUC insulin response,significant improvement in glucose tolerance,significant improvement of insulin sensitivity,"% Intact peptide remaining after time (hours) ([2]; incubation with DPP IV, 0 h): 100%; % Intact peptide remaining after time (hours) ([2]; incubation with DPP IV, 24 h): remained completely intact; antihyperglycaemic effect compared to glucose alone ([3]; 6.25 nmoles/kg with glucose): highly significant antihyperglycaemic properties; insulin response (AUC) compared to glucose alone ([3]; 6.25 nmoles/kg with glucose): 2.0 fold; enhancement of overall glucose-mediated insulin release (AUC) compared to native GIP ([3]; 25 nmoles/kg i.p. with glucose): 2.3 fold; overall glucose excursion compared to native GIP ([3]; 25 nmoles/kg i.p. with glucose): decreased the overall glucose excursion; potency at stimulating insulin secretion relative to N-AcGIP(LysPAL^16) ([3]; 25 nmoles/kg i.p. with glucose): 1.5 fold; glycated hemoglobin ([4]; 12.5 nmoles/kg/day, at 14 days): significantly (p<0.01) decreased; pancreatic insulin content ([4]; 14 days treatment): significantly increased; GIP receptor desensitization ([4]; acute 25 nmoles/kg with glucose after 14 days treatment): lack of GIP receptor desensitization"
YAPGTFISDYSIAMDKIHQQDFVNWLLAQKGKKNDWKHNITQ [(Pro^3)GIP],least potent analogues in terms of insulin release,–,–,–,–,–,–,–,–,–,–,–
